According to US4575487A, “Method for determination of transglucosidase” (Miles Laboratories, Inc., priority 1983, dated 1986):

Key:
amylolytic enzymes = conditions: J. Jap. Soc. Starch Sci., 27, 114-119 (1980); cited from earlier work
transglucosidase = transglucosidase (Aspergillus niger, UniProt P56526); assay: Effect of acarbose on transglucosidase activity (panose produced from maltose, in presence of glucoamylase); assay type: biochemical; conditions: for amount of panose produced: maltose 10%, pH 4.8, 37° C., one hour; for Inhibition (%) transglucosidase: 40 units of transglucosidase
Sequence of transglucosidase (P56526 26-266): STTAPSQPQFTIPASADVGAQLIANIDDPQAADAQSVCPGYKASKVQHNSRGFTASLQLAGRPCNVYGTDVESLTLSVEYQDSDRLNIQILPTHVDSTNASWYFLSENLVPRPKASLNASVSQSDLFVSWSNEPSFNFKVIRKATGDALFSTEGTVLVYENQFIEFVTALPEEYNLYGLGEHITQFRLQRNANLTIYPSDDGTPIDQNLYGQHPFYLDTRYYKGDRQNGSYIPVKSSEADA
Sequence of transglucosidase (P56526 267-985): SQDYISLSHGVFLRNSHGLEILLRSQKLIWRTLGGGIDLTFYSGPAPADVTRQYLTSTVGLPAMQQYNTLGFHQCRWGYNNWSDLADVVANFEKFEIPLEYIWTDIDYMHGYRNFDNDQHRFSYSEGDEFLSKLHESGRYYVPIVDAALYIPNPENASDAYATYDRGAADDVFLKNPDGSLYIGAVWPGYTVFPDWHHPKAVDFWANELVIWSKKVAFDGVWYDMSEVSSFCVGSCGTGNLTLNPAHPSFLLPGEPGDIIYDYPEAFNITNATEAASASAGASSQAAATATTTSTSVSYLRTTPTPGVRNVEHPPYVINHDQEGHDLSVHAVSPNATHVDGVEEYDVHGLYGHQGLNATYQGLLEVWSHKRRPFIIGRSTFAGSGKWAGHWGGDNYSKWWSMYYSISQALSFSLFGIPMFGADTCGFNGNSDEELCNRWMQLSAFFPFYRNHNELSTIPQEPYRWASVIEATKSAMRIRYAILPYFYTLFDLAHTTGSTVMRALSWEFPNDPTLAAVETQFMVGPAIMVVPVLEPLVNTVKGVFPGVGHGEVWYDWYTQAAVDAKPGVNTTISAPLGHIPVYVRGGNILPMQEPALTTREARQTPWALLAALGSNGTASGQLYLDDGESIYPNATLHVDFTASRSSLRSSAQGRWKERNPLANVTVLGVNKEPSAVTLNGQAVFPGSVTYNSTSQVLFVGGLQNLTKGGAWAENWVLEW
Description: (§1) A particularly effective, selective inhibitor is acarbose which is identified by J. Jap. Soc. […] The difference in the effect of acarbose on glucoamylase and transglucosidase has led to the development of a sensitive assay for transglucosidase in the presence of glucoamylase. To determine the level of acarbose needed to inhibit glucoamylase completely, purified glucoamylase equivalent to one DU (the amount that liberates one gram of reducing sugar per hour under the conditions of the assay published in U.S. Pat. No. 3,249,514) is treated with graded amounts of acarbose and the remaining activity measured by incubation with maltose under appropriate conditions, for example, at pH 4.2 and 37° C. with a maltose concentration of 10%. The extent of inhibition of glucoamylase activity is increased with increasing concentrations of acarbose up to 50 μg acarbose per DU enzyme and above, such concentrations causing 100% inhibition. In order to determine the effect of acarbose on TG activity, glucoamylase (one DU) containing TG (40 TG units, vide infra) was treated with different concentrations of acarbose and then incubated with maltose (10%), at pH 4.8, and 37° C. for one hour. The enzyme reaction was then terminated by heating the reaction mixture in a boiling water bath for 15 minutes and transglucosidase activity was determined by measuring, using liquid chromatography, the amount of panose produced during the reaction period. […] In these experiments, panose was routinely measured by a high pressure liquid chromatography procedure which separated this compound from glucose and maltose. Alternative procedures for specific determination of panose can be used equally well.
(§2) It is recognized that the inhibition of glucoamylase or acarbose and the measurement of transglucosidase activity may equally well be conducted under different conditions. In order to work at such alternative conditions, it is necessary to determine the effect of a range of acarbose concentrations under the conditions selected, and in this way to identify a level of acarbose sufficient to give complete inhibition of glucoamylase without inhibiting transglucosidase activity.
^b 40 units of transglucosidase were present in the reaction mixture.

glucoamylase = glucoamylase (Aspergillus niger, UniProt P69328); assay: Effect of acarbose on glucoamylase activity (remaining activity with maltose); assay type: biochemical; conditions: for Inhibition (%) glucoamylase: one unit of glucoamylase
Sequence of glucoamylase (P69328 25-640): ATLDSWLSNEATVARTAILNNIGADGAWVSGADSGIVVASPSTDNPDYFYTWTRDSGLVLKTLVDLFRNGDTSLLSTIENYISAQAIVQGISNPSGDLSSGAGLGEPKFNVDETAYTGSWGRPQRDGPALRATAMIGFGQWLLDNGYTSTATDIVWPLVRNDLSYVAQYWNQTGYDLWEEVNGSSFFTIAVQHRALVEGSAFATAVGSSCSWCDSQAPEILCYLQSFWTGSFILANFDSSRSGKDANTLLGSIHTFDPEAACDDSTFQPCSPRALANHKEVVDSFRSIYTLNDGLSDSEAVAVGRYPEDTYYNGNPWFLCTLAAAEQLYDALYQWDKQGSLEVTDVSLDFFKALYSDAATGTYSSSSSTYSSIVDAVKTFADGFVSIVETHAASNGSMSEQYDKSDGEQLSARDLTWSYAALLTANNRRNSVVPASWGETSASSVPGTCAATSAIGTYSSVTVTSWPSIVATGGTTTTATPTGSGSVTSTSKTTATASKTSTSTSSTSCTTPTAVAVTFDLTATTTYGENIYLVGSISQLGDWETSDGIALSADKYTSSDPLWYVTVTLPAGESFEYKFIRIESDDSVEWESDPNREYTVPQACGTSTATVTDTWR
Description: as §1, §2
^a one unit of glucoamylase was present in the reaction mixture.

[1] = acarbose 1.25 μg/DU glucoamylase
[2] = acarbose 2.5 μg/DU glucoamylase
[3] = acarbose 100 μg/DU glucoamylase
[4] = acarbose 200 μg/DU glucoamylase
[5] = acarbose 300 μg/DU glucoamylase
[6] = acarbose 400 μg/DU glucoamylase
[7] = acarbose 500 μg/DU glucoamylase
[8] = acarbose 600 μg/DU glucoamylase
[9] = acarbose 800 μg/DU glucoamylase
[10] = acarbose 1000 μg/DU glucoamylase
[11] = acarbose 2000 μg/DU glucoamylase

## C[C@H]1O[C@H](O[C@H]2[C@H](O)[C@@H](O)[C@@H](O[C@H]3[C@H](O)[C@@H](O)C(O)O[C@@H]3CO)O[C@@H]2CO)[C@H](O)[C@@H](O)[C@@H]1N[C@H]1C=C(CO)[C@@H](O)[C@H](O)[C@H]1O (stereo partly shown) [acarbose]
Amylolytic enzymes
  inhibition of amylolytic enzymes: inhibitor of amylolytic enzymes
transglucosidase; above 50 up to 500 μg acarbose per DU of glucoamylase
  amount of panose produced: remained constant
transglucosidase; [1]
  Inhibition (%) transglucosidase: 0%
transglucosidase; [2]
  Inhibition (%) transglucosidase: 0%
transglucosidase; acarbose 5 μg/DU glucoamylase
  Inhibition (%) transglucosidase: 0%
transglucosidase; acarbose 10 μg/DU glucoamylase
  Inhibition (%) transglucosidase: 0%
transglucosidase; acarbose 15 μg/DU glucoamylase
  Inhibition (%) transglucosidase: 0%
transglucosidase; acarbose 20 μg/DU glucoamylase
  Inhibition (%) transglucosidase: 0%
transglucosidase; acarbose 30 μg/DU glucoamylase
  Inhibition (%) transglucosidase: 0%
transglucosidase; acarbose 40 μg/DU glucoamylase
  Inhibition (%) transglucosidase: 0%
transglucosidase; acarbose 50 μg/DU glucoamylase
  Inhibition (%) transglucosidase: 0%
transglucosidase; [3]
  Inhibition (%) transglucosidase: 0%
transglucosidase; [4]
  Inhibition (%) transglucosidase: 0%
transglucosidase; [5]
  Inhibition (%) transglucosidase: 0%
transglucosidase; [6]
  Inhibition (%) transglucosidase: 0%
transglucosidase; [7]
  Inhibition (%) transglucosidase: 0%
transglucosidase; [8]
  Inhibition (%) transglucosidase: 6%
transglucosidase; [9]
  Inhibition (%) transglucosidase: 8%
transglucosidase; [10]
  Inhibition (%) transglucosidase: 12%
transglucosidase; [11]
  Inhibition (%) transglucosidase: 23%
transglucosidase; acarbose 50-500 μg/DU
  inhibition of transglucosidase activity: without there being any inhibition of transglucosidase activity
transglucosidase; acarbose exceeding 500 μg/DU glucoamylase
  amount of panose produced: steady decrease in the amount of panose produced, indicating inhibition of TG
transglucosidase; up to 50 μg acarbose per DU of glucoamylase
  amount of panose produced: increased with increasing levels of acarbose
glucoamylase; 50 μg acarbose per DU enzyme and above, maltose 10%, pH 4.2, 37° C.
  inhibition of glucoamylase activity: 100%
glucoamylase; [1]
  Inhibition (%) glucoamylase: 23%
glucoamylase; [2]
  Inhibition (%) glucoamylase: 36%
glucoamylase; acarbose 5 μg/DU glucoamylase
  Inhibition (%) glucoamylase: 65%
glucoamylase; acarbose 10 μg/DU glucoamylase
  Inhibition (%) glucoamylase: 86%
glucoamylase; acarbose 15 μg/DU glucoamylase
  Inhibition (%) glucoamylase: 91%
glucoamylase; acarbose 20 μg/DU glucoamylase
  Inhibition (%) glucoamylase: 95%
glucoamylase; acarbose 30 μg/DU glucoamylase
  Inhibition (%) glucoamylase: 97%
glucoamylase; acarbose 40 μg/DU glucoamylase
  Inhibition (%) glucoamylase: 98%
glucoamylase; acarbose 50 μg/DU glucoamylase
  Inhibition (%) glucoamylase: 100%
glucoamylase; [3]
  Inhibition (%) glucoamylase: 100%
glucoamylase; [4]
  Inhibition (%) glucoamylase: 100%
glucoamylase; [5]
  Inhibition (%) glucoamylase: 100%
glucoamylase; [6]
  Inhibition (%) glucoamylase: 100%
glucoamylase; [7]
  Inhibition (%) glucoamylase: 100%
glucoamylase; [8]
  Inhibition (%) glucoamylase: 100%
glucoamylase; [9]
  Inhibition (%) glucoamylase: 100%
glucoamylase; [10]
  Inhibition (%) glucoamylase: 100%
glucoamylase; [11]
  Inhibition (%) glucoamylase: 100%
glucoamylase; acarbose 50-500 μg/DU
  inhibition of glucoamylase activity: completely inhibited
